The source made the active and inactive calls. For most assays here, no stated cut-off is given here; in the data, actives have a measured EC50 and inactives only a lower limit.
How the values were obtained:
[1] = cells; format: functional, cell-based
[2] = cells; format: functional, cell-based; remark: listed apart in the source
[3] = molecular target: Paired box protein Pax-8 (Homo sapiens, UniProt Q06710); test: PAX8 transcriptional activity inhibition in RMG-I – RMG-I cells, luciferase, cherry-pick, dose response (AID 687027); format: functional, cell-based;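 further: luciferase reporter driven by Pax8 target thyroperoxidase promoter measured by SteadyGlo luminescence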
[4] = molecular target: T1, Polyadenylate-binding protein 1 (Homo sapiens, UniProt P11940); test: MLLE binding blockers, Cy5 peptide tracer – biochemical, fluorescence polarization, Cy5-PAM2 peptide, secondary, miRNA deadenylation inhibitor project, dose response (AID 602260); format: functional; settings: read-out: IC50_Mean
[5] = molecular target: T1, Polyadenylate-binding protein 1; test: MLLE domain peptide-binding blockers, IC50 – biochemical, fluorescence polarization, FITC-PAM2 peptide, dose response (AID 602259); format: functional; settings: read-out: IC50_Mean
[6] = molecular target: Luciferin 4-monooxygenase (Photinus pyralis, UniProt P08659); test: inhibition of purified Photinus pyralis luciferase – biochemical, luminescence, dose response (AID 1891)
[7] = Luminescence Cell-Based Dose Confirmation HTS to Identify Inhibitors of Platelet Dense Granule Release. [Related pubchem assays: 1663 (Primary HTS), 1678 (Summary of Project)]; format: functional
[8] = tested on: INS1; test: INS-1E survival protection against cytokine death – cell-based, luminescence, retest, dose response (AID 449756); format: functional; settings: Rattus norvegicus;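 further: cell death triggered by IL-1 beta plus TNF-alpha plus IFN-gamma mixture; protective hits raise ATP signal compared with cytokine alone wells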
[9] = molecular target: T2, Zinc finger protein mex-5 (Caenorhabditis elegans, UniProt Q9XUB2); test: potency of MEX-5 RNA-binding blockers – biochemical, C. elegans, fluorescence polarization, dose response (AID 1960)
T2 sequence (Q9XUB2 whole entry): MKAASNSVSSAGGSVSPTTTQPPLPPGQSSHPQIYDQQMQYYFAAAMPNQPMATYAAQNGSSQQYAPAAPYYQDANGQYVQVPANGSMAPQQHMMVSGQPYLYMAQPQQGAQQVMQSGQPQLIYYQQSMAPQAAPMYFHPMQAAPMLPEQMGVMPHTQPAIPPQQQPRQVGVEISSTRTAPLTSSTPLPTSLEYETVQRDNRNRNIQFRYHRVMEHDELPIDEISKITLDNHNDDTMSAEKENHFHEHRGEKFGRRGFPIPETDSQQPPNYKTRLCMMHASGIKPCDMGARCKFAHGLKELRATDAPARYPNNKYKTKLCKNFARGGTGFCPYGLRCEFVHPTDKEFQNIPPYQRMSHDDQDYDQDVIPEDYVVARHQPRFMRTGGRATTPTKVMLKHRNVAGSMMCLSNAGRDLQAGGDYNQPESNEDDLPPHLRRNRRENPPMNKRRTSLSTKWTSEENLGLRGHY

[10] = molecular target: T3, RNA-binding protein pos-1 (Caenorhabditis elegans, UniProt G5EF15); test: disruptors of C. elegans POS-1 RNA interaction – biochemical, fluorescence polarization, dose response (AID 1964);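 further: purified POS-1 fused to maltose binding protein made in E. coli; potency of compounds blocking POS-1 binding to fluorescent RNA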
T3 sequence (G5EF15 whole entry): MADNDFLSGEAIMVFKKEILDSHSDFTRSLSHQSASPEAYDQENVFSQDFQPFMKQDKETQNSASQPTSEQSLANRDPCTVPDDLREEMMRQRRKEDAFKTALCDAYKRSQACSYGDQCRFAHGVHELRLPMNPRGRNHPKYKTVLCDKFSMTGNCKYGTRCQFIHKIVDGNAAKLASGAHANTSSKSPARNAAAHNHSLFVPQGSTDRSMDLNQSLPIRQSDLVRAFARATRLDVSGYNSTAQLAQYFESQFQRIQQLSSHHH

[11] = molecular target: T4, Heat shock factor protein 1 (Mus musculus, UniProt P38532); test: enhancement of HSF1-driven luciferase signal – cell-based, NIH3T3, luminescence, dose retest, confirmation (AID 435004); format: functional;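 further: stress induced by proteasome inhibitor MG132 added 30 min after compound; luciferase reporter driven by HSF1 response element in NIH3T3 cells; actives raise luminescence as potentiators of the MG132 stress response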
T4 sequence (P38532 whole entry): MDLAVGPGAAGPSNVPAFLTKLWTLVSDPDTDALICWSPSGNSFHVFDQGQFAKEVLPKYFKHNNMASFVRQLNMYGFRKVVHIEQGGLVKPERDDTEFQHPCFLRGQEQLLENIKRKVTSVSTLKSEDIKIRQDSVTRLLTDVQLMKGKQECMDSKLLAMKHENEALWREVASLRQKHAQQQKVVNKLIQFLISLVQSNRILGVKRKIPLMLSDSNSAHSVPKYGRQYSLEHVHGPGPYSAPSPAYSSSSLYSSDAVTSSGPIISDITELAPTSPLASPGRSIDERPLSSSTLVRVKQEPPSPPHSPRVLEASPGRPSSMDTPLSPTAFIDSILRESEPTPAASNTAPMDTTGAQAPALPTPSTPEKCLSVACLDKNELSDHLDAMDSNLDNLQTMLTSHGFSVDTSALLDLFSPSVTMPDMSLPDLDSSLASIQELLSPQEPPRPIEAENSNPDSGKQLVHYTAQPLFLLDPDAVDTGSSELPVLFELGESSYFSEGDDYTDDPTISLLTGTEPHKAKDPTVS

[12] = NIH3T3 cell viability loss – ATP luminescence, mouse fibroblasts, counter-screen, dose response (AID 2010); format: functional, cell-based;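 further: cells exposed to compound for about 90 hours before reading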
[13] = Trypanosoma cruzi growth suppression in host cells – NIH3T3 host cells, beta-gal luminescence, confirmation (AID 2044); format: functional, cell-based;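 further: intracellular parasites grown in NIH/3T3 mouse fibroblasts as host cells; luminescent beta-galactosidase reporter signal from transgenic T. cruzi replicating inside host cells; inhibitors lower the luminescence signal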
[14] = molecular target: T5, Ubiquitin-conjugating enzyme E2 N (Homo sapiens, UniProt P61088); format: functional;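 further: Dose-response confirmation in a TR-FRET assay detecting UBC13-driven polyubiquitin chain formation, inhibition measured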
T5 sequence (P61088 whole entry): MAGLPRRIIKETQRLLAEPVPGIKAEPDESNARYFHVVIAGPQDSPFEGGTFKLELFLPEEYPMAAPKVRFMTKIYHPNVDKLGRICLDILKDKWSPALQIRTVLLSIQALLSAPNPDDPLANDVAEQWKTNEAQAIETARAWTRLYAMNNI

[15] = Luminescence Cell-Based Dose Retest to Confirm Inhibitors of Cancer Stem Cells. [Related pubchem assays (depositor defined):AID2717, AID2721]; format: functional; settings: Homo sapiens
[16] = molecular target: T4, Heat shock factor protein 1; test: decrease of HSF1-responsive luciferase luminescence – cell-based, NIH3T3, dose retest, confirmation (AID 2382); format: functional;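 further: NIH3T3 fibroblasts with HSF1-driven luciferase reporter stressed by proteasome inhibitor MG132; luminescence from HSF1-driven luciferase expression after 8 hours of MG132 stress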

Sequence of Paired box protein Pax-8 (Q06710 whole entry): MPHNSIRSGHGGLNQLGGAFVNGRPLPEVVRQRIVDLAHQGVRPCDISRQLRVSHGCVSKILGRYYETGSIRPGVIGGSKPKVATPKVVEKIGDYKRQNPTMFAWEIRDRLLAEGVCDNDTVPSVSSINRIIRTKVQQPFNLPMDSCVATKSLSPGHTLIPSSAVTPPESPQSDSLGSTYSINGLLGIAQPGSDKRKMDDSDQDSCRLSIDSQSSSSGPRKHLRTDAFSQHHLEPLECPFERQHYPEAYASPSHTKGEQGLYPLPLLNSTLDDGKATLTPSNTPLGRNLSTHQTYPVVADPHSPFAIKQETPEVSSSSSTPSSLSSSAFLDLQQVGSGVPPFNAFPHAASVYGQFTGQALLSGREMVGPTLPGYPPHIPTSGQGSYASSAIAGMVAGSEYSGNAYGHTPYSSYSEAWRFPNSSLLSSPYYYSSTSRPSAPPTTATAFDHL
Sequence of Luciferin 4-monooxygenase (P08659 whole entry): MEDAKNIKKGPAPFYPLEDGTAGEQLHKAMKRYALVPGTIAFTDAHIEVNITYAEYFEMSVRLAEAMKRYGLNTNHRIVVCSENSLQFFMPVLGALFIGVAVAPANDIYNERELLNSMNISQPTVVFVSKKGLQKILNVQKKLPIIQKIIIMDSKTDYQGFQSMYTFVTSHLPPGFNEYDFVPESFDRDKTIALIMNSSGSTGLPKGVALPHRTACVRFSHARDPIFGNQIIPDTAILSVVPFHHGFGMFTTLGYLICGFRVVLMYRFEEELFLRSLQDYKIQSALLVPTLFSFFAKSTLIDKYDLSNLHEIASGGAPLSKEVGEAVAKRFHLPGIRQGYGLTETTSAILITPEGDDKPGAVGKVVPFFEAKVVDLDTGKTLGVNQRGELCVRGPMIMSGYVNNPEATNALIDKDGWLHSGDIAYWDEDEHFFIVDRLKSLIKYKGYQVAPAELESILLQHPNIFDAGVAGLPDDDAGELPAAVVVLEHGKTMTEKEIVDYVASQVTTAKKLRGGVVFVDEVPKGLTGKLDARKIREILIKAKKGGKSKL
T1 sequence (P11940 whole entry, the tested form may be a part): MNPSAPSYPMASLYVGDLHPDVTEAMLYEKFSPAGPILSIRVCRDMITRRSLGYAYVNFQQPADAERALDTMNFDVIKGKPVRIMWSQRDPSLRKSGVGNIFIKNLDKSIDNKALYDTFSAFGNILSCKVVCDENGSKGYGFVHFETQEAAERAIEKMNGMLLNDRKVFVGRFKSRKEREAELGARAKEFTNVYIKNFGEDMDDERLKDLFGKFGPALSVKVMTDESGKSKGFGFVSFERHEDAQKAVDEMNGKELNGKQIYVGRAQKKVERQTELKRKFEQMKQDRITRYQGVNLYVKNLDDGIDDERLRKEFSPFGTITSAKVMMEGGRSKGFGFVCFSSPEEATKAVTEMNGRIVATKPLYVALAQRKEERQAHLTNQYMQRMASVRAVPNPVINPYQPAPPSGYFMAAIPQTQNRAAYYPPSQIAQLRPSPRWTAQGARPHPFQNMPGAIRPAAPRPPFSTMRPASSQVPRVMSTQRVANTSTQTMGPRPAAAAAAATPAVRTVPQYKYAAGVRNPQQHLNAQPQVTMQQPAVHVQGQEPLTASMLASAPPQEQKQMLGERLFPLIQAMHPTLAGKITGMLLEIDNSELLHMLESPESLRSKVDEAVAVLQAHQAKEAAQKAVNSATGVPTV

COC(=O)c1cn(C)c2ccc(S(=O)(=O)N3CCCCC3)cc2c1=O
EC50 [1]: > 350 µM (not active) | EC50 [2]: > 350 µM (not active)

Cc1ccccc1/N=C1\N=C(N)c2ccccc21
AC50 [3]: 17.3 µM (active)

CCOc1ccc(N2C(=O)CC(Sc3ccccc3C(=O)O)C2=O)c([N+](=O)[O-])c1 (stereo unspecified)
IC50 [4]: > 66 µM (inactive) | IC50 [5]: > 66 µM (inactive)

COc1ccccc1NS(=O)(=O)c1ccc(O)c(NC(S)=NCC2CCCO2)c1 (stereo unspecified)
IC50 [4]: > 66 µM (inactive) | IC50 [5]: > 66 µM (inactive)

CCOc1ccc(NC(O)=C2C(=O)NC(=O)NC2=O)cc1
EC50 [6]: 1.42 µM (active) | EC50 [7]: 9.93 µM (active)

CC(C)(C)n1nc2c3c(ccc2c1O)C(=O)c1ccccc1C3=O
AC50 [8]: 2.98 µM (active)

Cc1nnc(N2C(=O)C(O)=C(C(=O)c3ccco3)C2c2cccc3ccccc23)s1 (stereo unspecified)
EC50 [9]: > 300 µM (not active) | EC50 [10]: > 300 µM (not active)

O=C(NCc1nc2ccccc2[nH]1)c1c(F)c(F)c(F)c(F)c1F
EC50 [1]: > 350 µM (not active) | EC50 [2]: > 350 µM (not active)

COc1ccc(Oc2nc(-c3ccccc3)ncc2S(=O)(=O)c2ccccc2)cc1
EC50 [6]: > 112 µM (not active) | EC50 [7]: > 112 µM (not active)

O=C(OCCCCN1C(=O)c2ccccc2C1=O)c1ccc(S(=O)(=O)N2CCCC2)cc1
EC50 [6]: > 112 µM (not active) | EC50 [7]: > 112 µM (not active)

Cc1cc(C)c(O)c(NC(=S)NC(=O)Cc2ccccc2)c1
IC50 [4]: > 66 µM (inactive) | IC50 [5]: > 66 µM (inactive)

C=CCSc1nnc(N2C(=O)C(O)=C(C(=O)c3ccco3)C2c2ccc(F)cc2)s1 (stereo unspecified)
EC50 [11]: > 260 µM (inactive) | EC50 [9]: 87.6 µM (active) | EC50 [10]: 114 µM (active)

COc1ccc(CNC(=O)c2cnc3cc(C)ccn3c2=O)cc1
EC50 [9]: > 300 µM (not active) | EC50 [10]: > 300 µM (not active)

Cc1c(N=C(S)NNC(=O)CCC(=O)O)c(=O)n(-c2ccccc2)n1C
EC50 [6]: > 112 µM (not active) | EC50 [7]: > 112 µM (not active)

O=C(c1ccco1)N1CCN(Cc2nc(-c3cccs3)no2)CC1
EC50 [6]: > 112 µM (not active) | EC50 [7]: > 112 µM (not active)

O=C(Nc1cc(=O)[nH]c2ncnn12)c1ccc(Cl)cc1Cl
EC50 [9]: 20.5 µM (inconclusive) | EC50 [10]: 43.5 µM (inconclusive)

Cc1ccc(CN2[C@@H](CC(C)C)COCCS2(=O)=O)cc1
EC50 [1]: 72.7 µM (active) | EC50 [2]: > 350 µM (not active)

COc1ccc(N2C(=O)/C(=C/c3ccc(N(C)C)o3)C(=O)NC2=S)cc1
EC50 [9]: > 150 µM (inconclusive) | EC50 [10]: > 300 µM (not active)

Cc1cccn2c(Nc3ccccc3)c(-c3ccccn3)nc12
AC50 [8]: 5.84 µM (active)

CCCCN(C)C(=O)c1cccc(OC2CCN(CC(C)(C)C)CC2)c1
EC50 [9]: > 300 µM (inconclusive) | EC50 [10]: > 300 µM (not active)

CCOc1cc(C2C3=C(CCCC3=O)N(CC(=O)O)C3=C2C(=O)CCC3)ccc1OC
IC50 [4]: > 66 µM (inactive) | IC50 [5]: > 66 µM (inactive)

O=C(CCCc1ccccc1)Nc1nnc(C(F)(F)F)s1
EC50 [6]: > 112 µM (not active) | EC50 [7]: > 112 µM (not active)

CCCOC(=O)Nc1ccc(C(N)=O)cc1
EC50 [6]: > 112 µM (not active) | EC50 [7]: > 112 µM (not active)

COc1ccccc1C(=O)Oc1ccccc1C(=O)Nc1ccccc1
EC50 [1]: 16.1 µM (active) | EC50 [2]: > 350 µM (not active)

COc1ccc(N2C(=O)NC(=O)/C(=C/c3ccc4c(c3)Cc3ccccc3-4)C2=O)cc1
EC50 [9]: > 300 µM (not active) | EC50 [10]: > 300 µM (not active)

Fc1ccc(F)c(C2=NN=C(NCC3CCCO3)SC2)c1 (stereo unspecified)
IC50 [4]: > 66 µM (inactive) | IC50 [5]: > 66 µM (inactive)

Oc1[nH]c2ccc(Br)cc2c1N=NC(S)=NCC1CCCO1 (stereo unspecified)
EC50 [12]: > 60 µM (not active) | EC50 [13]: 2.17 µM (active) | IC50 [14]: > 20 µM (inactive)

Cc1cc(/C=C2\C(=O)NC(=O)N(C)C2=O)c(C)n1-c1ccc2c(c1)OCO2
EC50 [9]: > 300 µM (not active) | EC50 [10]: > 300 µM (not active)

CCCCc1nc2sc3c(O)ncnc3c2c2c1CCCC2
EC50 [6]: > 112 µM (not active) | EC50 [7]: > 112 µM (not active)

CCOc1c(C=C(C#N)C#N)c2ccccc2n1CC
EC50 [9]: > 300 µM (not active) | EC50 [10]: > 300 µM (not active)

COc1cccc(N(C(=O)c2snc(C(N)=O)c2N)C(C(=O)NCC2CCCO2)c2c[nH]c3ccccc23)c1 (stereo unspecified)
IC50 [14]: > 20 µM (inactive)

COc1ccc(COCC(O)CN2CCC(CN3C(=O)c4cccc5cccc(c45)C3=O)CC2)cc1OC (stereo unspecified)
IC50 [14]: > 20 µM (inactive)

O=C(Nc1ccc(-c2csc(Nc3cccc(C(F)(F)F)c3)n2)cc1)c1cc([N+](=O)[O-])cc(C(F)(F)F)c1
AC50 [8]: 7.89 µM (active) | AC50 [15]: 1.4 µM (active)

N=C(N)NC(=N)Nc1ccc(SC(F)(F)F)cc1
AC50 [8]: 1.72 µM (active)

O=C(Nc1cc[n+](-c2nc3ccccc3nc2[N-]S(=O)(=O)c2ccccc2)cc1)c1ccccc1Cl
EC50 [9]: 32.7 µM (active) | EC50 [10]: > 300 µM (not active)

CC(=O)c1cccc(NC(=O)CSC(=O)c2ccccc2)c1
EC50 [1]: > 350 µM (not active) | EC50 [2]: > 350 µM (not active)

Cn1c(=O)c2c(ncn2CC(=O)Nc2cccc(S(=O)(=O)Nc3ccccc3F)c2)n(C)c1=O
EC50 [16]: > 195 µM (not active) | IC50 [4]: > 66 µM (inactive) | IC50 [5]: > 66 µM (inactive)

O=C(Nc1ccccc1)NC1(C(=O)NCc2ccc3c(c2)OCO3)CCCCC1
EC50 [9]: > 300 µM (not active) | EC50 [10]: > 300 µM (not active)

N=C(S)C(c1ccccc1)c1ncc(C(F)(F)F)cc1Cl (stereo unspecified)
IC50 [4]: > 66 µM (inactive) | IC50 [5]: > 66 µM (inactive)

O=C(CSCc1ccco1)c1cccs1
EC50 [6]: > 112 µM (not active) | EC50 [7]: > 112 µM (not active)

COc1cccc(/C=N/NC(=O)c2ccc(N3CCCC3=O)cc2)c1
AC50 [3]: < 0.26 µM (active)

C[C@@H]1CCCCO[C@H](CN(C)C(=O)Nc2ccc(C(F)(F)F)cc2)[C@@H](C)CN([C@@H](C)CO)C(=O)c2cc(NS(=O)(=O)c3cccs3)ccc2O1
AC50 [3]: 6.63 µM (active)

Cc1ccc(S(=O)(=O)Nc2ccc3c(c2)C(=O)N([C@@H](C)CO)C[C@H](C)[C@@H](CN(C)C(=O)Nc2ccc(C(F)(F)F)cc2)OCCCC[C@H](C)O3)cc1
AC50 [3]: 3.14 µM (active)

COc1ccccc1-c1ccc2c(c1)[C@H]1[C@H](CCN1S(=O)(=O)c1ccccc1F)[C@H](CO)N2
AC50 [3]: 8.48 µM (active)
